# Assay results taken from PubChem BioAssay (NCI).
#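 Protocol summary: plate cells (96-well), add compound at 5 concentrations, incubate 48 h, interpolate endpoints linearly. The concentration for 50% growth inhibition is given as GI50. The concentration for full growth arrest is given as TGI.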
# Legend:
# Test in all cases: growth of human tumour cells (NCI), 48 h
# [1] = system: SK-MEL-28 melanoma
# [2] = system: SNB-19 CNS
# [3] = system: T-47D breast
# [4] = system: HL-60(TB) leukemia
# [5] = system: SW-620 colon
# [6] = system: HS 578T breast
# [7] = system: KM12 colon
# [8] = system: OVCAR-4 ovarian
# [9] = system: SK-MEL-2 melanoma
# [10] = system: SF-539 CNS
# [11] = system: CAKI-1 renal
# [12] = system: HCT-15 colon
# [13] = system: SF-268 CNS
# [14] = system: IGROV1 ovarian
# [15] = system: SR leukemia
# [16] = system: NCI-H460 lung
# [17] = system: MOLT-4 leukemia
# [18] = system: UACC-62 melanoma
# [19] = system: UO-31 renal
# [20] = system: NCI-H522 lung
# [21] = system: NCI-H226 lung
# [22] = system: HCT-116 colon
# [23] = system: M14 melanoma
# [24] = system: K-562 leukemia
# [25] = system: PC-3 prostate
# [26] = system: A549 NSCLC
# [27] = system: ACHN renal
# [28] = system: RXF 393 renal
# [29] = system: A498 renal
# [30] = system: NCI-H23 lung
# [31] = system: EKVX NSCLC
# [32] = system: HOP-92 NSCLC
# [33] = system: OVCAR-8 ovarian
# [34] = system: OVCAR-3 ovarian
# [35] = system: TK-10 renal
# [36] = system: OVCAR-5 ovarian
# [37] = system: SNB-75 CNS
# [38] = system: CCRF-CEM leukemia
# [39] = system: SK-MEL-5 melanoma
# [40] = system: SN12C renal
# [41] = system: BT-549 breast
# [42] = system: MALME-3M melanoma
# [43] = system: SK-OV-3 ovarian
# [44] = system: NCI/ADR-RES ovarian
# [45] = system: MDA-MB-435
# [46] = system: HCC-2998 colon
# [47] = system: COLO 205 colon
# [48] = system: RPMI-8226 leukemia
# [49] = system: SF-295 CNS
# [50] = system: DU-145 prostate
# [51] = system: U251 CNS
# [52] = system: MDA-MB-231 breast
# [53] = system: 786-0 renal
# [54] = system: MCF7 breast
# [55] = system: UACC-257 melanoma
# [56] = system: HOP-62 NSCLC
# [57] = system: HT29 colon
# [58] = system: LOX IMVI melanoma
smiles,measurement,setting,value
COc1cccc(-n2ncc3c(N/N=C/c4ccncc4)ncnc32)c1,GI50,[1],> 25 µM
same,TGI,[1],> 25 µM
same,GI50,[2],> 25 µM
same,TGI,[2],> 25 µM
same,GI50,[3],> 25 µM
same,TGI,[3],> 25 µM
same,GI50,[4],8.66 µM
same,TGI,[4],> 25 µM
same,GI50,[5],5.22 µM
same,TGI,[5],> 25 µM
same,GI50,[6],0.322 µM
same,TGI,[6],> 6.41 µM
same,GI50,[7],2.9 µM
same,TGI,[7],> 25 µM
same,GI50,[8],> 25 µM
same,TGI,[8],> 25 µM
same,GI50,[9],4.33 µM
same,TGI,[9],> 25 µM
same,GI50,[10],4.27 µM
same,TGI,[10],> 25 µM
same,GI50,[11],0.769 µM
same,TGI,[11],> 25 µM
same,GI50,[12],3.57 µM
same,TGI,[12],> 25 µM
same,GI50,[13],> 25 µM
same,TGI,[13],> 25 µM
same,GI50,[14],7.95 µM
same,TGI,[14],> 25 µM
same,GI50,[15],2.12 µM
same,TGI,[15],> 25 µM
same,GI50,[16],2.57 µM
same,TGI,[16],> 25 µM
same,GI50,[17],> 25 µM
same,TGI,[17],> 25 µM
same,GI50,[18],4.28 µM
same,TGI,[18],> 25 µM
same,GI50,[19],2.45 µM
same,TGI,[19],> 25 µM
same,GI50,[20],> 14.5 µM
same,TGI,[20],> 25 µM
same,GI50,[21],> 6.17 µM
same,TGI,[21],> 25 µM
same,GI50,[22],2.8 µM
same,TGI,[22],> 25 µM
same,GI50,[23],3.56 µM
same,TGI,[23],> 25 µM
same,GI50,[24],0.779 µM
same,TGI,[24],> 25 µM
same,GI50,[25],> 17.1 µM
same,TGI,[25],> 25 µM
same,GI50,[26],> 14.5 µM
same,TGI,[26],> 25 µM
same,GI50,[27],0.985 µM
same,TGI,[27],> 25 µM
same,GI50,[28],0.672 µM
same,TGI,[28],> 25 µM
same,GI50,[29],0.326 µM
same,GI50,[30],> 25 µM
same,TGI,[30],> 25 µM
same,GI50,[31],> 25 µM
same,TGI,[31],> 25 µM
same,GI50,[32],> 25 µM
same,TGI,[32],> 25 µM
same,GI50,[33],4.88 µM
same,TGI,[33],> 25 µM
same,GI50,[34],1.9 µM
same,TGI,[34],> 25 µM
same,GI50,[35],2.75 µM
same,TGI,[35],> 25 µM
same,GI50,[36],> 25 µM
same,TGI,[36],> 25 µM
same,GI50,[37],2.48 µM
same,TGI,[37],> 25 µM
same,GI50,[38],> 13.4 µM
same,TGI,[38],> 25 µM
same,GI50,[39],0.799 µM
same,TGI,[39],> 9.75 µM
same,GI50,[40],4.95 µM
same,TGI,[40],> 25 µM
same,GI50,[41],> 25 µM
same,TGI,[41],> 25 µM
same,GI50,[42],> 25 µM
same,TGI,[42],> 25 µM
same,GI50,[43],1.7 µM
same,TGI,[43],> 25 µM
same,GI50,[44],> 25 µM
same,TGI,[44],> 25 µM
same,GI50,[45],1.46 µM
same,TGI,[45],> 25 µM
same,GI50,[46],> 25 µM
same,TGI,[46],> 25 µM
same,GI50,[47],11.5 µM
same,TGI,[47],> 25 µM
same,GI50,[48],> 25 µM
same,TGI,[48],> 25 µM
same,GI50,[49],1.35 µM
same,TGI,[49],> 25 µM
same,GI50,[50],4.55 µM
same,TGI,[50],> 25 µM
same,GI50,[51],1.1 µM
same,TGI,[51],> 25 µM
same,GI50,[52],3.51 µM
same,TGI,[52],> 25 µM
same,GI50,[53],4.66 µM
same,TGI,[53],> 25 µM
same,GI50,[54],> 12.2 µM
same,TGI,[54],> 25 µM
same,GI50,[55],> 25 µM
same,TGI,[55],> 25 µM
same,GI50,[56],> 25 µM
same,TGI,[56],> 25 µM
same,GI50,[57],2.24 µM
same,TGI,[57],> 25 µM
same,GI50,[58],1.01 µM
same,TGI,[58],> 25 µM
